Assay results reported in patent US20200368312A1 (priority 2017, published 2020).
Read-outs that look alike come from different tables or passages of the source.

How the values were obtained:
Type in all cases: cell-based
Staphylococcus aureus = assay: microbe, parasite or virus in culture; conditions: for MIC: Staphylococcus aureus, read-out: MIC
Enterococci = tested on: Enterococci
Streptococci = assay: Broth microdilution MIC, Streptococci (Example 11, Table 7)
Clostridium difficile = assay: Broth microdilution MIC, C. difficile, anaerobic, supplemented Brucella Broth (Example 11, Table 7); conditions: C. difficile MMX 4381 ATCC 700057, toxinAB-negative
S. epidermidis (CoNS) = assay: Broth microdilution MIC, S. epidermidis (CoNS) (Table 7)
S. lugdenensis (CoNS) = assay: Broth microdilution MIC, S. lugdenensis (CoNS) (Table 7); conditions: S. lugdenensis (CoNS) MMX 8724
S. haemolyticus (CoNS) = assay: Broth microdilution MIC, S. haemolyticus (CoNS) (Table 7); conditions: S. haemolyticus (CoNS) MMX 529 ATCC 29970
S. hominis (CoNS) = assay: Broth microdilution MIC, S. hominis (CoNS) (Table 7); conditions: S. hominis (CoNS) MMX 667 ATCC 27844
C. perfringens = tested on: C. perfringens
P. micros = assay: Broth microdilution MIC, P. micros (Table 7); conditions: P. micros MMX 3546
P. anaerobius = assay: Broth microdilution MIC, P. anaerobius (Table 7); conditions: P. anaerobius MMX 1208 ATCC 27337
P. acnes = assay: Broth microdilution MIC, P. acnes (Table 7)
[1] = ATCC 29213 / MSSA, S. aureus MMX 100 ATCC 29213, MSSA (quality control)
[2] = ATCC 33591 / MRSA, S. aureus MMX 5717 ATCC 33591, MRSA
[3] = ATCC BAA-1556 / MRSA, S. aureus MMX 4675 ATCC BAA-1556, MRSA
[4] = ATCC BAA-1756 / MRSA, S. aureus MMX 2011 ATCC BAA-1756, MRSA
[5] = VISA, S. aureus MMX 1723, Mu50, VISA
[6] = VISA, S. aureus MMX 2124, VISA, DaptoNS
[7] = E. faecalis MMX 101 ATCC 29212, VSE
[8] = S. anginosus (AGS) MMX 1201 ATCC 33397
[9] = S. pneumoniae MMX 1195 ATCC 49619, PISP
[10] = S. epidermidis (CoNS) MMX 762, MRSE
[11] = S. epidermidis (CoNS) MMX 5145, MRSE

CC(=O)NC[C@H]1CN(c2ccc(N3CCOCC3)c(F)c2)C(=O)O1 [Linezolid]
2.5 µg/mL: MIC (Staphylococcus aureus; MRSA, S. aureus MMX 5985, MRSA) | MIC (Staphylococcus aureus; VISA, S. aureus MMX 4660, VISA)
2 µg/mL: MIC (Staphylococcus aureus; [4]) | MIC (Staphylococcus aureus; MRSA, S. aureus MMX 7900, MRSA) | MIC (Staphylococcus aureus; MRSA, S. aureus MMX 7901, MRSA) | MIC (Staphylococcus aureus; MRSA, S. aureus MMX 7902, MRSA) | MIC (Staphylococcus aureus; MSSA, S. aureus MMX 7908, MSSA) | MIC (Enterococci; [7]) | MIC (Enterococci; E. faecalis MMX 1086, VanA VRE) | MIC (Enterococci; E. faecium MMX 851, VanA VRE) | MIC (Enterococci; E. faecium MMX 4204) | MIC (Streptococci; S. pyogenes MMX 404 ATCC 19615) | MIC (S. epidermidis (CoNS); [10])
1 µg/mL: MIC (Staphylococcus aureus; [2]) | MIC (Streptococci; S. agalactiae MMX 4088) | MIC (Streptococci; S. agalactiae MMX 4115, erm^R) | MIC (Streptococci; S. dysgalactiae MMX 5121) | MIC (Streptococci; S. dysgalactiae MMX 5123) | MIC (Streptococci; S. dysgalactiae MMX 5124) | MIC (Streptococci; S. oralis (MGS) MMX 5821) | MIC (Streptococci; S. pneumoniae MMX 432, PRSP) | MIC (Streptococci; S. pneumoniae MMX 747) | MIC (Streptococci; [9]) | MIC (Streptococci; S. pyogenes MMX 946, ermR) | MIC (Streptococci; S. pyogenes MMX 8778) | MIC (Clostridium difficile) | MIC (S. hominis (CoNS))
3 µg/mL: MIC (Staphylococcus aureus; MRSA, S. aureus MMX 2010, MRSA) | MIC (Staphylococcus aureus; MRSA, S. aureus MMX 3982, MRSA) | MIC (Staphylococcus aureus; MSSA, S. aureus MMX 7907, MSSA)
4 µg/mL: MIC (Staphylococcus aureus; [1]) | MIC (Enterococci; E. faecalis MMX 4176) | MIC (Enterococci; E. faecium MMX 173, VanB VRE)
0.5 µg/mL: MIC (Streptococci; [8]) | MIC (Streptococci; S. constellatus (AGS) MMX 5677) | MIC (Streptococci; S. mitis (MGS) MMX 5798) | MIC (S. epidermidis (CoNS); [11]) | MIC (S. lugdenensis (CoNS)) | MIC (S. haemolyticus (CoNS))
1.5 µg/mL: MIC (Staphylococcus aureus; [3]) | MIC (Staphylococcus aureus; MRSA, S. aureus MMX 5999, MRSA) | MIC (Staphylococcus aureus; MRSA, S. aureus MMX 7899, MRSA) | MIC (Staphylococcus aureus; MRSA, S. aureus MMX 7903, MRSA) | MIC (Staphylococcus aureus; MSSA, S. aureus MMX 2490, MSSA) | MIC (Staphylococcus aureus; S. aureus MMX 4665, hVISA) | MIC (Staphylococcus aureus; S. aureus MMX 5989, Mu3, hVISA) | MIC (Staphylococcus aureus; [6]) | MIC (Staphylococcus aureus; VISA, S. aureus MMX 4658, VISA)
214 ×: RV40 activity as compared to Comparator (Staphylococcus aureus; MRSA strains (Table 5), […])
1.25 µg/mL: MIC (Staphylococcus aureus; [5])

CN[C@H](CC(C)C)C(=O)N[C@H]1C(=O)N[C@@H](CC(N)=O)C(=O)N[C@H]2C(=O)N[C@H]3C(=O)N[C@H](C(=O)N[C@H](C(=O)O)c4cc(O)cc(O)c4-c4cc3ccc4O)[C@H](O[C@H]3C[C@](C)(N)[C@@H](O)[C@H](C)O3)c3ccc(c(Cl)c3)Oc3cc2cc(c3O[C@@H]2O[C@H](CO)[C@@H](O)[C@H](O)[C@H]2O[C@H]2C[C@](C)(NCc3ccc(-c4ccc(Cl)cc4)cc3)[C@@H](O)[C@H](C)O2)Oc2ccc(cc2Cl)[C@H]1O [Oritavancin]
0.03 µg/mL: MIC (Staphylococcus aureus; [1]) | MIC (Staphylococcus aureus; [4]) | MIC (Staphylococcus aureus; MRSA, S. aureus MMX 5985, MRSA) | MIC (Enterococci; E. faecalis MMX 4176) | MIC (Streptococci; S. mitis (MGS) MMX 1205 ATCC 49456) | MIC (P. micros) | MIC (P. anaerobius)
0.05 µg/mL: MIC (Streptococci; S. dysgalactiae MMX 5121)
2 µg/mL: MIC (Streptococci; S. dysgalactiae MMX 5123) | MIC (Streptococci; S. pyogenes MMX 404 ATCC 19615)
0.25 µg/mL: MIC (Staphylococcus aureus; VISA, S. aureus MMX 4658, VISA) | MIC (Streptococci; S. agalactiae MMX 4115, erm^R) | MIC (Streptococci; S. mitis (MGS) MMX 5798) | MIC (Streptococci; S. pyogenes MMX 946, ermR) | MIC (S. epidermidis (CoNS); [10])
1 µg/mL: MIC (Staphylococcus aureus; [5]) | MIC (Staphylococcus aureus; [6]) | MIC (Staphylococcus aureus; VISA, S. aureus MMX 4660, VISA) | MIC (Enterococci; E. faecalis MMX 1086, VanA VRE) | MIC (Streptococci; S. agalactiae MMX 427 ATCC 13813) | MIC (Streptococci; S. dysgalactiae MMX 5124) | MIC (Streptococci; S. pyogenes MMX 8778)
0.06 µg/mL: MIC (Staphylococcus aureus; [3]) | MIC (Staphylococcus aureus; MRSA, S. aureus MMX 2010, MRSA) | MIC (Staphylococcus aureus; MRSA, S. aureus MMX 7903, MRSA) | MIC (Staphylococcus aureus; MSSA, S. aureus MMX 7907, MSSA) | MIC (Staphylococcus aureus; MSSA, S. aureus MMX 7908, MSSA) | MIC (S. hominis (CoNS))
0.015 µg/mL: MIC (Enterococci; E. faecium MMX 4204) | MIC (C. perfringens)
0.025 µg/mL: MIC (Staphylococcus aureus; MSSA, S. aureus MMX 2490, MSSA)
0.5 µg/mL: MIC (Staphylococcus aureus; MRSA, S. aureus MMX 7901, MRSA) | MIC (Staphylococcus aureus; MRSA, S. aureus MMX 7902, MRSA) | MIC (Staphylococcus aureus; S. aureus MMX 4665, hVISA) | MIC (Streptococci; [8])
≤ 0.008 µg/mL: MIC (Enterococci; [7]) | MIC (Enterococci; E. faecium MMX 173, VanB VRE) | MIC (Streptococci; S. constellatus (AGS) MMX 5677) | MIC (Streptococci; S. oralis (MGS) MMX 5821) | MIC (Streptococci; S. pneumoniae MMX 432, PRSP) | MIC (Streptococci; S. pneumoniae MMX 747) | MIC (Streptococci; [9]) | MIC (S. lugdenensis (CoNS)) | MIC (P. acnes; P. acnes MMX 7942 ATCC 6919) | MIC (P. acnes; P. acnes MMX 7946 ATCC 11827)
0.12 µg/mL: MIC (Staphylococcus aureus; [2]) | MIC (Staphylococcus aureus; MRSA, S. aureus MMX 3982, MRSA) | MIC (Staphylococcus aureus; MRSA, S. aureus MMX 5999, MRSA) | MIC (Staphylococcus aureus; MRSA, S. aureus MMX 7899, MRSA) | MIC (Staphylococcus aureus; MRSA, S. aureus MMX 7900, MRSA) | MIC (Staphylococcus aureus; S. aureus MMX 5989, Mu3, hVISA) | MIC (Enterococci; E. faecium MMX 851, VanA VRE) | MIC (Streptococci; S. agalactiae MMX 4088) | MIC (S. epidermidis (CoNS); [11]) | MIC (S. haemolyticus (CoNS))
17 ×: RV40 activity as compared to Comparator (Staphylococcus aureus)
